US20050202488A1, “Assay for therapies that inhibit expression of the cytosolic Cu/Zn superoxide dismutase (SOD1) gene” (The General Hospital Corporation, priority 2004, published 2005)

System: human SOD1 promoter
Assay: SOD1 promoter-EGFP reporter high through-put screening assay in stably transfected PC12 cells
Assay type: cell-based, rat
Details: PC12 stable cell line treated 24 hrs with increasing mitomycin C concentration; FIG. 2
Description: We have developed a cell-based, fluorescent high through-put screening assay to identify compounds that reduce SOD1 expression using a stable rat pheochromocytoma PC12 cell line with 2.2 kb of human SOD1 promoter sequence driving EGFP expression (FIG. 1).
The human SOD1 promoter was amplified by PCR from a control DNA sample using primers 5′ […] 3′ (SEQ ID NO:3) and 5′ […] 3′ (SEQ ID NO:4). Restriction sites were incorporated into the primers although these were not used for the cloning but to aid transfer into additional vectors in the future. PCR reactions were carried out in a final volume of 40 μl on a thermocycler (Hybaid). PCR reactions contained a final concentration of 3 U Taq polymerase (New England Biolabs, Beverly, Mass.), 150 ng of DNA, 1×PCR buffer, […] of each dNTP, 40 pmoles of forward and reverse primers (MWG-Biotech, High Point, N.C.), 2.5 mM MgCl2, and 5% DMSO. […]
Initial testing of the assay has been carried out using a known inhibitor of SOD1 expression, mitomycin C (Cho C., et al., (1997), The transcriptional repression of the human Cu/Zn superoxide dismutase(sod1) gene by the anticancer drug, mitomycin C(MMC), Biochem Mol Biol Int., 42:949-56). […] The level of EGFP fluorescence was read on a Wallac plate reader (Perkin Elmer, Boston, Mass.) (excitation 485 nm, emission 535 nm). […]

CO[C@@]12[C@H](COC(N)=O)C3=C(C(=O)C(C)=C(N)C3=O)N1C[C@@H]1N[C@@H]12 [mitomycin C]
EGFP fluorescence (relative expression level): progressive decrease in fluorescence
